The results in this text go back to PubChem BioAssay (NCI).

Common to all, as to experiment: growth of human tumour cells (NCI), 48 h
Experiment [1] relates to CAKI-1 renal.
Experiment [2] has as its system CCRF-CEM leukemia.
Experiment [3] has as its system HCT-116 colon.
Experiment [4] relates to HOP-62 NSCLC.
The test system of experiment [5] is IGROV1 ovarian.
The subject of experiment [6] is KM12 colon.
Experiment [7] concerns LOX IMVI melanoma.
Experiment [8] concerns MDA-MB-231 breast.
Experiment [9] concerns MDA-MB-435.
In experiment [10] the test system is MOLT-4 leukemia.
Experiment [11] deals with NCI-H23 lung.
In experiment [12] the test system is NCI-H522 lung.
Experiment [13] deals with OVCAR-3 ovarian.
In experiment [14] the test system is SF-268 CNS.
In experiment [15] the test system is SF-295 CNS.
Experiment [16] deals with SF-539 CNS.
Experiment [17] concerns SK-MEL-2 melanoma.
Experiment [18] has as its system SN12C renal.
In experiment [19] the test system is HL-60(TB) leukemia.

SMILES strings stand for the structures.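 Exposure lasted 48 hours, with cells grown in 96-well plates and compounds tested at five concentrations. TGI is the concentration that stops growth completely.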

As to `CCCN(CCc1ccc(-c2ccccc2)cc1)CCc1ccc2n[nH]nc2c1`, the TGI worked out at 25.5 µM in experiment [1]; 19.4 µM in experiment [2]; 18.1 µM in experiment [3]; 26.3 µM in experiment [4]; 22.1 µM in experiment [5]; 34.1 µM in [6]. The TGI was 28.6 µM in experiment [7]; 28.1 µM in experiment [8]; 28.6 µM in experiment [9]; 19.1 µM in experiment [10]; 25.8 µM in experiment [11]; 25.9 µM in experiment [12]. The TGI was found to be 25.8 µM in experiment [13]; 48.7 µM in experiment [14]; 27.5 µM in [15]; 24 µM in experiment [16]; 33.4 µM in experiment [17]; 27.4 µM in experiment [18].
Turning to `Nc1cc(Cl)cc2cc(Cl)cnc12`, the TGI in experiment [1], in [2], in experiment [3], in [19], in experiment [4] and in experiment [5] was above 100 µM in each case. The TGI in experiment [6], in [7], in [8], in experiment [9], in [10] and in experiment [11] was above 100 µM throughout. Besides, the TGI in [12], in [13], in experiment [14], in [15], in [16] and in experiment [18] was above 100 µM throughout.
Take `Cc1ccc2c(c1)C(=O)C1(C2)Cc2c(C)cccc2C1=O` (stereo unspecified): the TGI in experiment [1], in [2], in experiment [3], in [19], in [4] and in experiment [5] was above 100 µM each time. Further, the TGI in experiment [6], in experiment [7], in experiment [8], in experiment [9], in experiment [10] and in experiment [11] was above 100 µM each time. Also, the TGI in [12], in experiment [13], in experiment [14], in experiment [15], in experiment [16] and in experiment [18] was above 100 µM each time.
For the molecule `CCC(C)C(=O)OC1C(=O)OC2CC3C(C)=CC(=O)C(O)C3(C)C3C4(O)OCC23C1C(C)C4O` (stereo unspecified), the TGI was determined as 7.44 µM in experiment [1]; 0.0393 µM in [2]; 1.4 µM in [3]; 0.149 µM in [4]; 0.175 µM in experiment [5]; 0.133 µM in [6]. Further, the TGI in experiment [7] is 0.0154 µM; in [8], 0.161 µM; in experiment [9] it was 0.0723 µM; in experiment [11] it was 0.0431 µM; in experiment [12], below 0.0212 µM; in [13] it was 0.124 µM. Also, the TGI was determined as 0.124 µM in experiment [14], 0.126 µM in experiment [15], 0.0315 µM in experiment [16] and 0.184 µM in experiment [17].
With `CN(CCC(=O)N1CC(CCl)c2ccc([N+](=O)[O-])cc21)CCC(=O)N1CC(CCl)c2ccc([N+](=O)[O-])cc21` (stereo unspecified), the TGI in experiment [1] was 48 µM; in [2] it was above 100 µM; in experiment [3], 26.1 µM; in experiment [4], above 100 µM; in [6], 18.3 µM; in [7] it was 21.7 µM. Also, the TGI was determined as 44.5 µM in experiment [8]; 27.5 µM in experiment [9]; 24.2 µM in experiment [10]; 29.3 µM in experiment [11]; 21.7 µM in [12]; 23.7 µM in experiment [13]. Further, the TGI in [14] worked out at 28.5 µM; in [15] it was 39.5 µM; in [16], 27.7 µM; in experiment [17] it was 26 µM; in experiment [18], 41.1 µM.
As to `N=c1c2ccccc2nc2oc3cc([N+](=O)[O-])ccc3n12`, the TGI in experiment [1] was above 100 µM; in experiment [2] it was above 100 µM; in experiment [3] it was above 100 µM; in experiment [4], 45.4 µM; in [5] it was above 100 µM; in [6], above 100 µM. In addition, the TGI is above 100 µM in experiment [7]; 60.5 µM in experiment [8]; above 100 µM in experiment [9]; above 100 µM in [10]; 49.5 µM in [11]; above 100 µM in experiment [12]. Moreover, the TGI in experiment [13] is 70.8 µM; in experiment [14], 85.2 µM; in experiment [15], 54.4 µM; in [16] it was 65.4 µM; in experiment [17], above 100 µM; in experiment [18], above 100 µM.
`Cc1ccc(-c2c(C#N)c(-c3ccccc3)n(NS(=O)(=O)c3ccc(C)cc3)c(=O)c2C#N)cc1`: the TGI is above 100 µM in experiment [1]; 80.3 µM in experiment [2]; above 100 µM in experiment [3]; above 100 µM in [4]; above 100 µM in experiment [5]; above 100 µM in experiment [6]. Further, the TGI is above 100 µM in experiment [7]; above 100 µM in experiment [8]; above 100 µM in experiment [9]; 54.5 µM in experiment [10]; above 100 µM in experiment [12]; above 100 µM in experiment [14]. The TGI in experiment [15], in [16], in experiment [17] and in experiment [18] was above 100 µM in each case.
